Experimental data as given in paper PMC10252837, “A Novel Time-Resolved Fluorescence Resonance Energy Transfer Assay for the Discovery of Small-Molecule Inhibitors of HIV-1 Tat-Regulated Transcription” (International Journal of Molecular Sciences, 2023).
Entries after “also recorded” stand apart in the source; their conditions may differ.

Experiments:
HIV-1NL4-3 (X4-tropic) = test: HIV-1 replication assay in PBMCs (p24), HIV-1NL4-3; assay type: cell-based; settings: PHA-preactivated PBMCs, MOI 0.1, 72 h; 460-G06 at 12.5-100 nM
Method: (§1) Figure 6 Phytohemagglutinin-preactivated peripheral blood mononuclear cells were infected with HIV-1NL4-3 (A) or HIV-1AD8 (B) at an MOI of 0.1 for 2 h and then treated with compounds at indicated concentrations for 72 h. […] The data are expressed as the mean ± SD (n = 3). * p < 0.05 indicates a comparison with the cells treated with DMSO (vehicle). ARVs, anti-retroviral drugs; EFV, efavirenz; DOL, dolutegravir; AZT, azidothymidine.
(§2) The experiments were performed in triplicate.

TZM-bl cells = test: in vitro; settings: human, 24 h
Method: (§3) (A) (Upper panel) Doxycycline (Dox)-inducible Tat-expressing bl-DTR cells cultured in 96-well plates treated with two-fold serial dilutions of each compound in the presence of Dox (50 ng/mL). At 24 h after treatment, the activity of firefly luciferase (F-Luc), indicating Tat activity, was determined as described in the Materials and Methods section. (Bottom panel) TZM-bl cells were treated with two-fold serial dilutions of the indicated compound and then infected with the HIV-1NL4-3 strain at a multiplicity of infection (MOI) of 1. At 24 h after infection, the viral infectivity and cell viability were determined as described in the Materials and Methods section. […] (B) 2 × 10^5 TZM-bl cells growing in 6-well plates were infected with HIV-1 (MOI = 1), transfected with a Tat-expressing plasmid (2 μg) or treated with PMA ([…]) upon indicated compounds at indicated concentrations, respectively. At 24 h after treatment, LTR promoter activity was determined via a Bright-Glo Luciferase Assay Kit. The relative activities are represented as the mean ± SD (n = 3) compared with the DMSO vesicle. (C) The biotinylated TAR RNA (2 nM) was incubated with ARM peptide (100 nM) in the presence of increasing amounts of the hit compound and separated on a 3–12% native polyacrylamide gel. The mobility of biotinylated TAR RNA was detected by chemiluminescence.
(§4) To determine the inhibitory effect of hit compounds on HIV-1 infection, we used TZM-bl cells (also referred to as JC53BL-13), which express HIV-1 receptors and contain the LTR-driven F-Luc gene controlled by HIV-1 infection, as described previously but with some minor modifications. Briefly, 1 × 10^4 TZM-bl cells cultured on 96-well plates were treated in triplicate wells with 1:2 serially diluted compounds at concentrations ranging from 0 to 12.5 µM. […] At 24 h after infection, the inhibitory effect of the hit compounds on infectivity was determined using the Bright-Glo Luciferase Assay Kit (Promega). The dose–response data are expressed as a relative percentage compared to the DMSO control (vehicle). The inhibitory effects of the hit compounds on HIV-1 replication were determined as previously described. […] After infection, the cells were treated with hit compounds at the indicated concentrations at 3–5 days after treatment, and the inhibitory effect of hit compounds on viral replication was determined by the titration of virions from the cell supernatant using a p24 […]™ Assay Kit (PerkinElmer) according to the manufacturer’s instructions. Cell viability was determined using resazurin-based PrestoBlue™ cell viability reagent (Thermo Fisher Scientific, Waltham, MA, USA) according to the manufacturer’s instructions. […]

in vitro = settings: human
Method: as §3, §4

[1] = system: Tat activity (Tat-induced viral transcription); test: microbe, parasite or virus in culture; assay type: cell-based, HIV-1
Method: as §3
The inhibitory effect of hit compounds on Tat-mediated transcription was determined using doxycycline (Dox)-inducible Tat-expressing TZM-bl cells that express the LTR-driven firefly luciferase (F-Luc) gene under the control of Tat upon Dox treatment, as described previously but with minor modifications. In brief, 1 × 10^4 of the cells were cultured in 96-well plates, treated with compounds at a concentration of 10 µM (in the second round of screening), and then treated with Dox (final concentration: 50 ng/mL). After 24 h, the inhibitory effect of the hit compounds on Tat activity was determined by measuring F-Luc activity using a Bright-Glo Luciferase Assay Kit (Promega, Madison, WI, USA). For the dose–response assay, cells cultured in 100 μL medium were treated with 50 μL of 1:2 serially diluted compounds at concentrations ranging from 0 to 12.5 µM and then treated with 50 μL of Dox (final concentration: 50 ng/mL). At 24 h post-treatment, the F-Luc activity was determined as described above. All luminescence assays were carried out in a SpectraMax Paradigm Microplate Reader (Molecular Devices, San Jose, CA, USA), and the data were expressed as a relative percentage (%) compared to the DMSO control (vehicle) in the presence of Dox. The experiments were performed in triplicate.

HIV-1NL4-3 = test: HIV-1 infectivity in TZM-bl cells (LTR-driven F-Luc); assay type: cell-based; settings: Human immunodeficiency virus 1, TZM-bl, 24 h, read-out: IC50 of Infectivity
Method: as §3
To determine the inhibitory effect of hit compounds on HIV-1 infection, we used TZM-bl cells (also referred to as JC53BL-13), which express HIV-1 receptors and contain the LTR-driven F-Luc gene controlled by HIV-1 infection, as described previously but with some minor modifications. Briefly, 1 × 10^4 TZM-bl cells cultured on 96-well plates were treated in triplicate wells with 1:2 serially diluted compounds at concentrations ranging from 0 to 12.5 µM. Subsequently, the cells were infected with HIV-1NL4-3 virus obtained from the transfection of 293T cells at a multiplicity of infection (MOI) of 1. At 24 h after infection, the inhibitory effect of the hit compounds on infectivity was determined using the Bright-Glo Luciferase Assay Kit (Promega). The dose–response data are expressed as a relative percentage compared to the DMSO control (vehicle). The inhibitory effects of the hit compounds on HIV-1 replication were determined as previously described. Briefly, 4 × 10^5 PBMCs pre-activated with phytohemagglutinin M (PHA-M) were washed with fresh media and then infected with HIV-1NL4-3 or HIV-1AD8 at an MOI of 0.1 by spinoculation for 2 h. After infection, the cells were treated with hit compounds at the indicated concentrations at 3–5 days after treatment, and the inhibitory effect of hit compounds on viral replication was determined by the titration of virions from the cell supernatant using a p24 […]™ Assay Kit (PerkinElmer) according to the manufacturer’s instructions. Cell viability was determined using resazurin-based PrestoBlue™ cell viability reagent (Thermo Fisher Scientific, Waltham, MA, USA) according to the manufacturer’s instructions. The data are presented as relative percentages compared to the DMSO control (vehicle). The experiments were performed in triplicate.

[2] = system: peripheral blood mononuclear cells; test: Cell viability in PBMCs (PrestoBlue); assay type: cell-based; settings: primary PBMCs, 72 h
Method: as §1, §2

HIV-1AD8 (R5-tropic) = test: HIV-1 replication assay in PBMCs (p24), HIV-1AD8; assay type: cell-based; settings: PHA-preactivated PBMCs, MOI 0.1, 72 h; 460-G06 at 12.5-100 nM
Method: as §1, §2

TAR RNA = test: RNA gel mobility shift assay (biotinylated TAR RNA and ARM peptide); assay type: binding, HIV-1; settings: 2 nM biotinylated TAR RNA, 100 nM ARM peptide
Method: To determine the inhibitory effect of hit compounds on the Tat (ARM)-TAR RNA interaction, a gel shift assay was carried out using the LightShift Chemiluminescent RNA EMSA Kit (Thermo Scientific) according to the manufacturer’s instructions, but with minor modifications suitable for our experiment. Briefly, 2 nM of 5′-biotinylated TAR RNA (nt 31) and 100 nM of ARM peptide were incubated with increasing amounts of hit compounds in the 1× REMSA binding buffer (10 mM HEPES pH 7.5, 10 mM MgCl2, 5 mM KCl, 1 mM DTT, and v/v 5 % glycerol) supplemented with 8 units/reaction of RNase OUT (Invitrogen) (final: 20 µL) at 20 °C for 20 min. Subsequently, the reaction was separated on a 3–12% native gradient PAGE gel. The RNA was then transferred to a nylon membrane to detect the mobility-shifted biotinylated TAR RNA using StAV-horseradish peroxidase conjugate. Chemiluminescence was detected using a GBox Chemi chemi-luminometer (Syngene, Fredrick, MD, USA).

With `CN1C/C=C/CCOc2cccc(c2)-c2ccnc(n2)Nc2cccc(c2)C1` [Hit 460-G06, (E)-6-methyl-12-oxa-3,6-diaza-2(4,2)-pyrimidine-1,4(1,3)-dibenzenacyclododecaphan-8-ene] the “inhibition of viral replication, in words” value (HIV-1NL4-3 (X4-tropic)) was “inhibited viral replication in a dose-dependent manner”, the “concentration at which cytotoxicity is indicated” value (TZM-bl cells) was “over 0.1 μM” and the CC50 at 24 h (in vitro) was 4940 ± 440 nM. For the same molecule, the “dose response of Tat activity (F-Luc), in words” value ([1]; 0-12.5 μM, bl-DTR cells) was “gradual inhibition of F-Luc activity”, the IC50 ([1]; Human immunodeficiency virus 1, 24 h, read-out: IC50 of Tat Activity) was 11 ± 1 nM and the IC50 (HIV-1NL4-3) was 13 ± 3 nM. For the same molecule, the “cell viability / cytotoxicity in PBMCs, in words” value [2] was “without a severe decrease in cell viability; also recorded: such cytotoxicity was not observed”, the “inhibition of viral replication, in words” value (HIV-1AD8 (R5-tropic)) was “inhibited viral replication in a dose-dependent manner” and the Kd (TAR RNA) was 132000 nM. For the same molecule, the “dissociation of ARM from TAR RNA, in words” value (TAR RNA) was “directly bound to the TAR RNA and efficiently dissociated the ARM from TAR RNA”.
